{"source": "patent US9770423B2", "about": "“Modulation sAPP, sAAPα and BDNF levels in individuals diagnosed with FXS and ASD” (Indiana University Research and Technology Corp., priority 2012, dated 2017)", "origin": "cited, not measured here", "key": {"males with FXS": {"test_system": "males with FXS", "conditions": "cited from earlier work"}, "fmr1 knockout mouse": {"test_system": "fmr1 knockout mouse", "conditions": "literature; cited from earlier work"}, "[1]": {"test_system": "cerebellar granule cells from FMR1 knockout mice", "conditions": "cultured cerebellar granule cells from FMR1 knockout mice; cited from earlier work"}, "[2]": {"test_system": "persons with FXS and comorbid ASD", "conditions": "cited from earlier work"}, "[3]": {"test_system": "drinking-in-the-dark mouse model", "conditions": "cited from earlier work"}, "adults with FXS": {"test_system": "adults with FXS", "conditions": "single dose, cited from earlier work"}, "subjects with FXS": {"test_system": "subjects with FXS", "conditions": "cited from earlier work"}}, "data": [{"smiles": "COC(=O)N1CC[C@@H]2[C@H]1CCC[C@@]2(O)C#Cc1cccc(C)c1", "note": "[AFQ056]", "values": [{"measurement": "response in subset with full FMR1 gene methylation (ABC, CGI-I, Visual Analogue Scale, Repetitive Behavior Scale-Revised)", "setting": "males with FXS; 7 subject subset", "value": "significant response to AFQ056 compared to placebo"}, {"measurement": "group treatment effect", "setting": "males with FXS; 30 males with FXS aged 18 to 35 years", "value": "not associated with significant group treatment effect"}]}, {"smiles": "NCCS(=O)(=O)O", "note": "[taurine]", "values": [{"measurement": "effect on phenotype of fmr1 knockout mice", "setting": "fmr1 knockout mouse", "value": "Improvements in memory acquisition and retention"}]}, {"smiles": "CC(=O)[C@H]1CC[C@H]2[C@@H]3CC[C@H]4C[C@H](O)CC[C@]4(C)[C@H]3C(=O)C[C@]12C", "note": "[alphaxalone]", "values": [{"measurement": "effect on phenotype of fmr1 knockout mice", "setting": "fmr1 knockout mouse", "value": "reductions in anxiety and rescue of audiogenic seizures"}]}, {"smiles": "CC12CC3CC(C)(C1)CC(N)(C3)C2", "note": "[memantine]", "values": [{"measurement": "dendritic spine development and synapse formation", "setting": "[1]", "value": "correction of dendritic spine development and synapse formation"}, {"measurement": "subjects with clinical response (CGI-I very much improved or much improved)", "setting": "[2]; four of 6 persons with FXS and comorbid ASD", "value": 67, "unit": "%"}, {"measurement": "subjects with treatment limiting irritability", "setting": "[2]; of 6 persons", "value": "Two subjects"}]}, {"smiles": "Cc1nc(C#Cc2cccnc2)cs1", "note": "[MTEP, 3-((2-Methyl-4-thiazolyl)ethynyl)pyridine]", "values": [{"measurement": "alcohol intake", "setting": "[3]", "value": "reduced alcohol intake"}]}, {"smiles": "CN1CC(=O)NC1=NC(=O)Nc1cccc(Cl)c1", "note": "[fenobam]", "values": [{"measurement": "subjects experiencing mild sedation", "setting": "adults with FXS; 3 of 12 adults with FXS", "value": 25, "unit": "%"}, {"measurement": "subjects who experienced clinical benefit", "setting": "adults with FXS; 9 of 12 adults with FXS, reductions in hyperactivity and anxiety", "value": 75, "unit": "%"}, {"measurement": "pharmacokinetics", "setting": "adults with FXS; 12 adults with FXS", "value": "variable pharmacokinetics"}, {"measurement": "tolerability", "setting": "adults with FXS; 12 adults with FXS", "value": "good tolerability"}]}, {"smiles": "Oc1noc2c1CCNC2", "note": "[gaboxadol]", "values": [{"measurement": "effect on phenotype of fmr1 knockout mice", "setting": "fmr1 knockout mouse", "value": "restored neuron excitability deficits in the amygdala, reduced hyperactivity, and reduced PPI deficits"}]}, {"smiles": "NC[C@H](CC(=O)O)c1ccc(Cl)cc1", "note": "(single isomer, unassigned) [STX209]", "values": [{"measurement": "effect on phenotype of fmr1 knockout mice", "setting": "fmr1 knockout mouse", "value": "correction of aberrant protein synthesis and dendritic spine abnormalities"}, {"measurement": "ABC-SW and VABS Socialization, post-hoc subset", "setting": "subjects with FXS; 27 subject subset with baseline ABC-SW score of ≧8", "value": "significant STX209-associated improvement"}, {"measurement": "primary outcome measure, ABC Irritability (ABC-I) subscale", "setting": "subjects with FXS; 63 subjects aged 6 to 40 years with FXS", "value": "not associated with improvement"}, {"measurement": "Social Avoidance scale (ABC-SA), post-hoc analysis", "setting": "subjects with FXS; 63 subjects with FXS", "value": "significant group-wide improvement"}, {"measurement": "global measures (CGI-I, CGI-S), other ABC subscales, Visual Analog Scale", "setting": "subjects with FXS; 63 subjects with FXS", "value": "Group-wide effects were also not noted"}, {"measurement": "subjects reporting sedation", "setting": "subjects with FXS; 63 subjects with FXS", "value": 8, "unit": "%"}]}, {"smiles": "Cc1cccc(C#Cc2ccccc2)n1", "note": "[MPEP, 2-methyl-6-(phenylethynyl)-pyridine]", "values": [{"measurement": "effect on phenotype of fmr1 knockout mice", "setting": "fmr1 knockout mouse", "value": "reverse phenotypic characteristics, including audiogenic seizures, altered pre-pulse inhibition (PPI), and open field hyperactivity"}]}]}
